According to patent US8680290B2, “Isoxazoline derivatives and their use as herbicides” (Syngenta Limited, priority 2004, dated 2014):

Test system: Monocotyledonous and dicotyledonous test plants
Test: Example B1 herbicidal action, application pre-emergence (Table B1b)
Type: in vivo
Details: 250 g/ha, evaluated after 4 weeks
Method: Monocotyledonous and dicotyledonous test plants were sown in seed trays in standard soil. Immediately after sowing (pre-emergence) or after 8 to 9 days cultivation (post-emergence), the test compounds were applied by spraying in the form of an aqueous solution derived from the formulation of the technical active ingredient in 0.6 ml acetone and 45 ml formulation solution containing 10.6% Emulsogen EL (CAS RN 61791-12-6), 42.2% N-methylpyrrolidone, 42.2% dipropylene glycol monomethyl ether (CAS RN 34590-94-8) and 0.2% X-77 (CAS RN 11097-66-8). The test plants were then grown in a greenhouse under optimum conditions. After a test duration of 3 weeks (post-emergence) or 4 weeks (pre-emergence), the test was evaluated (10=total damage to plant, 0=no damage to plant).

SMILES | herbicidal action (damage rating 0-10), Amaranthus | herbicidal action (damage rating 0-10), Digitaria | herbicidal action (damage rating 0-10), Panicum | herbicidal action (damage rating 0-10), Setaria | herbicidal action (damage rating 0-10), Sida
CC1(C)CC(S(=O)(=O)C(F)(Cl)c2ccccc2F)=NO1 (racemic) [1.73] | 10 | 10 | 10 | 10 | 8
CC1(C)CC(S(=O)(=O)C(Br)c2ccccc2OC(F)F)=NO1 (racemic) [1.78] | 10 | 10 | 10 | 10 | 2
CC1(C)CC(S(=O)(=O)C(Br)c2ccccc2)=NO1 (racemic) [1.81] | 9 | 6 | 8 | 5 | 0
CC1(C)CC(S(=O)(=O)C(Br)c2ccccc2F)=NO1 (racemic) [1.82] | 10 | 9 | 10 | 9 | 0
COc1cc(OC)cc(C(Br)S(=O)(=O)C2=NOC(C)(C)C2)c1 (racemic) [1.84] | 10 | 9 | 10 | 9 | 0
CC1(C)CC(S(=O)(=O)C(Cl)c2c(F)cccc2C(F)(F)F)=NO1 (racemic) [1.91] | 3 | 10 |  | 9 | 10
CC1(C)CC(S(=O)(=O)C(Cn2ccnc2)c2c(F)cccc2F)=NO1 (racemic) [Compound No. 1.87] | 3 | 7 | 5 | 7 | 0
CC1(C)CC(S(=O)(=O)C(Cn2cncn2)c2c(F)cccc2F)=NO1 (racemic) [Compound No. 1.90] | 4 | 4 | 0 | 0 | 5
CC1(C)CC([S+]([O-])C(Cl)c2c(F)cccc2Cl)=NO1 (single isomer, unassigned) [1.33] | 0 | 8 | 10 | 7 | 0
CCC(Cl)(c1c(F)cccc1F)S(=O)(=O)C1=NOC(C)(C)C1 (stereo not shown) [1.16] | 0 | 4 | 5 | 4 | 0
CC1(C)CC(S(=O)(=O)C(Br)(Br)c2c(F)cccc2F)=NO1 [1.50] | 10 | 9 | 10 | 10 | 7
COc1ccccc1C(Br)S(=O)(=O)C1=NOC(C)(C)C1 (stereo not shown) [1.101] | 9 | 8 | 8 | 8 | 0
CC1(C)CC(S(=O)(=O)C(Br)c2cc(F)cc3c2OCOC3)=NO1 (stereo not shown) [1.103] | 3 | 9 | 9 | 5 | 0
CC1(C)CC(S(=O)(=O)C(F)c2cc(F)cc3c2OCOC3)=NO1 (stereo not shown) [1.106] | 3 | 7 | 8 | 6 | 0
CC1(C)CC(S(=O)(=O)C(Br)c2cc(F)cc(F)c2)=NO1 (stereo not shown) [1.134] | 5 | 10 | 10 | 9 | 0
CC1(C)CC(S(=O)(=O)C(Br)c2cc(F)ccc2F)=NO1 (stereo not shown) [1.135] | 7 | 10 | 10 | 9 | 0
CC1(C)CC([S+]([O-])C(c2c(F)cccc2F)C(F)(F)F)=NO1 (stereo not shown) [1.139] | 0 | 8 | 0 | 7 | 0
COc1ccccc1C(Cl)S(=O)(=O)C1=NOC(C)(C)C1 (stereo not shown) [1.141] | 5 | 9 | 9 | 9 | 0
Cc1ccc(F)c(C(Cl)S(=O)(=O)C2=NOC(C)(C)C2)c1F (stereo not shown) [1.145] | 10 | 10 | 10 | 10 | 7
CC1(C)CC(S(=O)(=O)C(Br)c2ccc(F)cc2F)=NO1 (stereo not shown) [1.150] | 6 | 10 | 10 | 9 | 0
CC1(C)CC(S(=O)(=O)C(Br)c2ccccc2-c2ccccc2)=NO1 (stereo not shown) [1.151] | 5 | 0 | 8 | 7 | 4
Cn1nc(C(F)(F)F)c(C(C(=O)C(F)F)S(=O)(=O)C2=NOC(C)(C)C2)c1OCC(F)(F)F (stereo not shown) [2.06] | 7 | 8 | 8 | 7 | 3
CC(=O)C(c1c(C(F)(F)F)nn(C)c1OCC(F)(F)F)S(=O)(=O)C1=NOC(C)(C)C1 (stereo not shown) [2.08] | 4 | 2 | 9 |  | 2
CCOc1c(C(F)(F)S(=O)(=O)C2=NOC(C)(C)C2)c(C(F)(F)F)nn1C [2.17] | 10 | 8 | 8 | 8 | 5
